According to patent US5736557A, “N,N-bis (quinolin-4-yl)-diamine derivatives, their preparation and their use as antimalarials” (Hoffman-La Roche, Inc., priority 1994, dated 1998):
Values after ≈ are worked out from the molar mass of the structure shown. Like-named read-outs stand apart in the source and are kept apart here.

How the values were obtained:
[1] = test system: chloroquine-resistant strains of the human-pathogenic Plasmodium falciparum; experiment: Growth inhibition of chloroquine-resistant Plasmodium falciparum strains in vitro; type: cell-based; conditions: for IC50: Plasmodium falciparum; for Resistance index: ratio of average IC50 values for resistant strains and average values for sensitive strains
Description: (§1) Test Method for the Determination of the Activity Against Plasmodium falciparum in vitro
(§2) The preparations are tested on intraerythrocytary stages of Plasmodium falciparum from asynchronous cultures according to the method of Desjardin et al. (Desjardins, R. E. et al: Quantitative assessment of antimalarial activity in vitro by a semiautomated microdilution technique. Antimicrob. Agents Chemother. 16, 710-718, (1979)).
(§3) The culture medium consists of RPMI 1640 with the addition of 25 mM HEPES, 25 mM NaHCO3, 100 μg/ml neomycin and […] (A^+). Human-A^+ erythrocytes are used as the Plasmodium falciparum host cells. The parasites are maintained at 37° C. in an atmosphere of 3% O2, 4% CO2, 9:3% N2 and 95% relative humidity.
(§4) In order to determine the activity, the preparations are dissolved in dimethyl sulphoxide, pre-diluted in the culture medium to a suitable starting concentration and subsequently titrated-out on to microtitre plates in the 2nd stage over 6-7 steps. After the addition of the parasite culture (0.7% parasitemia in 2.5% erythrocyte suspension) the test plates are incubated under the conditions given above for 48 h-72 h. The parasite growth in the different preparation concentrations is determined using [G--^3 H]-hypoxanthin incorporation compared to untreated control cultures on the same test plates. The 50% growth inhibition (IC50) is calculated according to logit regression analysis from the resulting dosage-activity curve.
(§5) The preparations are tested on at least one chloroquine-resistant and one chloroquine-sensitive Plasmodium falciparum strain. Additional sensitive and resistant strains are included for futher characterization.

[2] = test system: chloroquine-sensitive strains of the human-pathogenenic Plasmodium falciparum; experiment: Growth inhibition of chloroquine-sensitive Plasmodium falciparum strains in vitro; type: cell-based; conditions: read-out: IC50 growth inhibition
Description: as §1, §2, §3, §4, §5

Plasmodium berghei = experiment: Activity against Plasmodium berghei in vivo in mice; parameters: species or system Plasmodium berghei (strain ANKA) in mice; conditions: percentage parasitemia reduction, mice
Description: Test Method for the Determination of the Activity Against Plasmodium berghei in vivo
The preparations are tested on mice infected with malaria pathogens (Plasmodium berghei). Male albino mice (IBM:MORO(SPF), FUELLINSDORF) weighing about 25 g are used as the test animals. They are kept in climatized rooms at 21°-22° C. in groups of 5 animals per cage. They receive ad libitum a diet feed with a low PABA content (NAFAG FUTTER .COPYRGT. No. 9009 PAB-45, PABA content 45 mg/kg) and drinking water. On the first day of the test (DO) the test animals are infected with Plasmodium berghei (strain ANKA). For this there is used heparinized blood of a donor mouse with about 30% parasitemia, which is diluted with physiological saline such that it contains 10^8 parasitized erythrocytes per ml. 0.2 ml of this suspension is injected intravenously (i.v.) into the mice to be treated and into the control mice. In untreated control animals the parasitemia normally reaches 30-40% on the third day after the infection (D+3) and the test animals die between days +5 and +7.
The substances to be tested are dissolved or suspended in distilled water or in a mixture of 7% Tween 80, 3% alcohol (96%) and water. Usually, 0.25 ml of this solution or suspension is administered once subcutaneously and perorally to groups of 5 test animals. Treatment is effected 24 hours after the infection. 10 control animals are treated in the same manner with solvent or suspension medium per test.
All substances are tested in a first test in a single dosage of 10 mg/kg. Only those substances which in this test (10 mg/kg) have shown a parasitaemia reduction of 90% are used for the titration. Suitable dilutions of the test substance can be used to obtain an accurate titration of the activity.
48 hours after the treatment (D+3) blood smears are prepared from all animals using blood from tail veins and are stained with giemsa. The average erythrocyte infection rate (parasitemiea in %) in the control groups as well as in the groups which have been treated with the test compounds is determined by counting under a microscope. The difference in the average values of the infection rates of control group (100%) and treated groups is calculated and expressed as a percentage reduction (GI%). The ED50 or ED90 is determined mathematically by means of the JMP programme (nonlinear fit). The ED50 (ED90) in mg/kg is that dose which after single administration reduces the average erythrocyte infection rate by 50% (90%) in comparison to the control group.

[3] = read-out: IC50 growth inhibition, strain 7G8, chloroquine-resistant
[4] = read-out: IC50 growth inhibition, strain Indo, chloroquine-resistant
[5] = read-out: IC50 growth inhibition, strain ItG2F6, chloroquine-resistant
[6] = read-out: IC50 growth inhibition, strain K1, chloroquine-resistant
[7] = read-out: IC50 growth inhibition, strain RFCF3, chloroquine-resistant
[8] = read-out: IC50 growth inhibition, strain W2, chloroquine-resistant
[9] = read-out: IC50 growth inhibition, strain W2 Mef, chloroquine-resistant
[10] = HB3, strain HB3, chloroquine-sensitive
[11] = NF54, strain NF54, chloroquine-sensitive
[12] = strain FCH5C2, chloroquine-sensitive
[13] = strain RFMEF3, chloroquine-sensitive
[14] = strain Ro73, chloroquine-sensitive
[15] = po, single peroral dose 10 mg/kg, read-out: GI % at 10 mg/kg po
[16] = sc, single subcutaneous dose 10 mg/kg, read-out: GI % at 10 mg/kg sc

SMILES | IC50 [1, 3] [µg/mL] | IC50 [1, 4] [µg/mL] | IC50 [1, 5] [µg/mL] | IC50 [1, 6] [µg/mL] | IC50 [1, 7] [µg/mL] | IC50 [1, 8] [µg/mL] | IC50 [1, 9] [µg/mL] | Resistance index [1] | IC50 [2, 10] [µg/mL] | IC50 [2, 11] [µg/mL] | IC50 [2, 12] [µg/mL] | IC50 [2, 13] [µg/mL] | IC50 [2, 14] [µg/mL] | inhibition in vivo at 10 mg/kg (Plasmodium berghei; [15]) [%] | inhibition in vivo at 10 mg/kg (Plasmodium berghei; [16]) [%]
Clc1ccc2c(Nc3cccc(Nc4ccnc5cc(Cl)ccc45)c3)ccnc2c1 [Example 9, N,N'-Bis-(7-Chloroquinolin-4-yl)-phenylene-1,3-diamine] | 0.0171 (≈ 0.0396 µM) | 0.0077 (≈ 0.0179 µM) | 0.0129 (≈ 0.0299 µM) | 0.0171 (≈ 0.0396 µM) | 0.0125 (≈ 0.029 µM) | 0.0121 (≈ 0.0281 µM) | 0.0121 (≈ 0.0281 µM) | 0.9 | 0.0095 (≈ 0.022 µM) | 0.0237 (≈ 0.0549 µM) | 0.0156 (≈ 0.0362 µM) | 0.0108 (≈ 0.025 µM) | 0.0104 (≈ 0.0241 µM) | 86 | 83
Clc1ccc2c(NCC3CCCC(CNc4ccnc5cc(Cl)ccc45)C3)ccnc2c1 (stereo not drawn) [Example 11, (7-Chloroquinolin-4-yl)-[3-(7-chloroquinolin-4-yl-aminomethyl)-cyclohexylmethyl]-amine] | 0.0205 (≈ 0.044 µM) | 0.0144 (≈ 0.0309 µM) | 0.0116 (≈ 0.0249 µM) | 0.0178 (≈ 0.0382 µM) | 0.0141 (≈ 0.0303 µM) | 0.0099 (≈ 0.0213 µM) | 0.0159 (≈ 0.0342 µM) | 1.1 | 0.0127 (≈ 0.0273 µM) | 0.0172 (≈ 0.037 µM) | 0.0145 (≈ 0.0312 µM) | 0.0168 (≈ 0.0361 µM) | 0.0049 (≈ 0.0105 µM) | 28 | 99.6
